≈ marks a conversion by molar mass, not a printed value.
Legend:
[1] = system: A549 (lung adenocarcinoma) cells; test: Cytotoxicity, Alamar blue assay, A549 cells; assay type: cell-based; conditions: Homo sapiens, 24 h exposure
Method in brief: (§1)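 Cells were seeded to reach 70–80% confluence at 24 h, then exposed to compounds at 12.5–100 µg/mL for 24 h. Viability was read by resazurin (200 µM, 4 h) fluorescence relative to 0.2% DMSO control. IC50 came from a 4-parameter logistic fit.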

[2] = system: LNCaP (prostate carcinoma) cells; test: Cytotoxicity, Alamar blue assay, LNCaP cells; assay type: cell-based; conditions: Homo sapiens, 24 h exposure
Method in brief: as §1

[3] = DPPH˙ radical scavenging assay
Method in brief: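 Compounds from 1 mg/mL DMSO stocks tested at various concentrations against DPPH˙, following Brand-Williams. Scavenging followed as absorbance decrease at 517 nm by spectrophotometer; triplicate determinations, averaged.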

[4] = Fe^2+ chelation assay (ferrozine competition)
Method in brief: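 Fe²⁺ chelation by competition with ferrozine, with absorbance read at 562 nm against a blank. Chelation % = (control − sample absorbance)/control absorbance × 100.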

[5] = Cupric reducing antioxidant capacity (CUPRAC) assay; parameters: concentration or dose not given beside the values; conditions: for CUPRAC, % of Activity of Trolox: relative to Trolox; for CUPRAC, % of Activity of Ascorbic Acid: relative to ascorbic acid
Procedure: The ability to donate electrons was evaluated for the compounds 5a–d and 6a–d, by the CUPRAC (CUPric reducing antioxidant capacity) method. The absorbance was measured against a blank sample, at λ = 450 nm. The assay was performed based on our group’s previous report by the adaptation of the initial report of Alam et al., Özyürek et al. and Apak et al.. With the use of Equation (4), the cupric ion reduction by compounds 5a–d and 6a–d was expressed as a percentage of the reference compound activity.
The Cu^2+ ions are reduced to Cu^+ ions by the electron-donating compounds. The Cu^+ ions are chelated by neocuproine, giving a colored complex with absorbance proportional to the quantity of Cu^+ ions that resulted.

[6] = Reducing power (RP) assay; parameters: concentration or dose not given beside the values; conditions: for RP, % of Activity of Trolox: relative to Trolox; for RP, % of Activity of Ascorbic Acid: relative to ascorbic acid
Procedure: Herein, the iron (III) is not free in the solution as it was in the FRAP assay and is complexed by cyanide ions. The evaluation of the reducing power (RP) was performed at a pH closer to neutral (pH = 6.6); this is different from the FRAP test, which is performed in an acidic environment. Against a blank sample, the absorbances were measured at λ = 700 nm. The followed protocol was based on the adaptation of previously reported protocols and was previously reported by our group. Using Equation (4), we calculated the reducing power of the 5a–d and 6a–d compounds as a percentage of the reference compounds activity.
The evaluated compounds can reduce ferricyanide to ferrocyanide, in the presence of ferric ions, resulting in the Perl’s Prussian which gives blue. The higher the percentage of reducing power, the higher was the absorbance that was measured due to a higher amount of colored complex resulting from the reaction.

[7] = NO˙ radical scavenging assay (Griess reaction); conditions: PBS pH 7.4, sodium nitroprusside
Method in brief: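 Nitric oxide radicals were generated by decomposition of sodium nitroprusside in PBS at pH 7.4 in the presence of test compounds. Uncaptured NO˙ was detected by Griess reaction with sulfanilic acid and naphthyl ethylenediamine, forming an azo dye read at 546 nm.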

Row | IC50 [3] [µM] | IC50 (DPPH˙ scavenging) [3] [µg/mL] | SMILES | IC50 [1] [µg/mL] | IC50 [2] [µg/mL] | % of DPPH˙ Scavenging ([3]; 1.25 µg/mL) | % of DPPH˙ Scavenging ([3]; 2.5 µg/mL) | % of DPPH˙ Scavenging ([3]; 3.75 µg/mL) | % of DPPH˙ Scavenging ([3]; 5 µg/mL) | % of DPPH˙ Scavenging ([3]; 7.5 µg/mL) | % of DPPH˙ Scavenging ([3]; 10 µg/mL) | % of DPPH˙ Scavenging ([3]; 12.5 µg/mL) | % of DPPH˙ Scavenging ([3]; 15 µg/mL) | Ferrous ions Chelation Capacity (%) ([4]; 17.70 µg/mL) | Ferrous ions Chelation Capacity (%) ([4]; 20.59 µg/mL) | Ferrous ions Chelation Capacity (%) ([4]; 29.41 µg/mL) | Ferrous ions Chelation Capacity (%) ([4]; 44.11 µg/mL) | Ferrous ions Chelation Capacity (%) ([4]; 58.82 µg/mL) | Ferrous ions Chelation Capacity (%) ([4]; 88.23 µg/mL) | Ferrous ions Chelation Capacity (%) ([4]; 117.64 µg/mL) | Ferrous ions Chelation Capacity (%) ([4]; 257.46 µg/mL) | other results
1 | 4.93 | 2.18 (≈ 4.93 µM) | CCCCn1c(SCC(=O)NN=Cc2ccc(O)c(O)c2O)nc2ccccc2c1=O [Compound 5d, 2-((3-Butyl-4-oxo-3,4-dihydroquinazolin-2-yl)thio)-N’-(2,3,4-trihydroxybenzylidene)acetohydrazide] | 42.1 | 56.8 | 41.12% | 53.03% | 63.53% | 71.70% | 87.99% | + (+ represents more than 95%) | + (+ represents more than 95%) | + (+ represents more than 95%) | - (- represents less than 5%) | - (- represents less than 5%) | - (- represents less than 5%) | - (- represents less than 5%) | - (- represents less than 5%) | - (- represents less than 5%) | 58.18% | 71.56% | Ferrous ions Chelation Capacity (%) ([4]; 343.28 µg/mL): 80.50%; CUPRAC, % of Activity of Trolox [5]: 106.43%; CUPRAC, % of Activity of Ascorbic Acid [5]: 111.66%; RP, % of Activity of Trolox [6]: 72.18%; RP, % of Activity of Ascorbic Acid [6]: 49.54%; % of NO˙ Scavenged [7]: 35.14%
2 | > 30 | >15 | CCn1c(SCC(=O)NN=C(C)c2ccc(O)cc2O)nc2ccccc2c1=O [Compound 6c, N’-(1-(2,4-dihydroxyphenyl)ethylidene)-2-((3-ethyl-4-oxo-3,4-dihydroquinazolin-2-yl)thio)acetohydrazide] | > 100 | > 100 | - (- represents less than 5%) | - (- represents less than 5%) | - (- represents less than 5%) | - (- represents less than 5%) | - (- represents less than 5%) | - (- represents less than 5%) | 10.11% | 14.89% | - (- represents less than 5%) | - (- represents less than 5%) | - (- represents less than 5%) | - (- represents less than 5%) | - (- represents less than 5%) | - (- represents less than 5%) | - (- represents less than 5%) | - (- represents less than 5%) | Ferrous ions Chelation Capacity (%) ([4]; 343.28 µg/mL): - (- represents less than 5%); CUPRAC, % of Activity of Trolox [5]: 29.09%; CUPRAC, % of Activity of Ascorbic Acid [5]: 30.52%; RP, % of Activity of Trolox [6]: 28.98%; RP, % of Activity of Ascorbic Acid [6]: 19.89%; % of NO˙ Scavenged [7]: 30.62%
3 | > 30 | >15 | CC(=NNC(=O)CSc1nc2ccccc2c(=O)n1Cc1ccccc1)c1ccc(O)cc1O [Compound 6b, 2-((3-Benzyl-4-oxo-3,4-dihydroquinazolin-2-yl)thio)-N’-(1-(2,4-dihydroxyphenyl)ethylidene)acetohydrazide] | 42.2 | 30.4 | - (- represents less than 5%) | - (- represents less than 5%) | - (- represents less than 5%) | - (- represents less than 5%) | - (- represents less than 5%) | - (- represents less than 5%) | - (- represents less than 5%) | 11.59% | - (- represents less than 5%) | - (- represents less than 5%) | - (- represents less than 5%) | - (- represents less than 5%) | - (- represents less than 5%) | - (- represents less than 5%) | - (- represents less than 5%) | - (- represents less than 5%) | Ferrous ions Chelation Capacity (%) ([4]; 343.28 µg/mL): - (- represents less than 5%); CUPRAC, % of Activity of Trolox [5]: 22.63%; CUPRAC, % of Activity of Ascorbic Acid [5]: 23.74%; RP, % of Activity of Trolox [6]: 29.01%; RP, % of Activity of Ascorbic Acid [6]: 19.91%; % of NO˙ Scavenged [7]: 33.31%

— article PMC9867241, “Antioxidant and Cytotoxic Activity of New Polyphenolic Derivatives of Quinazolin-4(3H)-one: Synthesis and In Vitro Activities Evaluation” (Pharmaceutics, 2022)
